Structures can show the parent of a compound that is named as a salt.

Experimental findings from patent US10800752B2, “Substituted naphtho[2,3-b]furans as water-soluble prodrugs for preventing and/or treating cancer” (BOSTON BIOMEDICAL, INC., priority 2015, dated 2020) are described below.

A short description of data set [1]: Evaluation of a conversion rate to 2-acetylnaphtho[2,3-b]furan-4,9-dione in pH 7.4 phosphate buffer solution. The data set is classed as physicochemical. The conditions noted are these: Phosphate buffer solution (pH 7.4), 1 umol/L, 37° C., incubation time 120 min. As for the experimental part: (§1) For test compounds, the decrease rate of the test compounds and the conversion rate thereof to 2-acetylnaphtho[2,3-b]furan-4,9-dione in human plasma, CD1 mouse plasma, and pH 7.4 phosphate buffer solution were measured.
(§2) Test compounds were incubated at the concentration of 1 umol/L in human plasma (cat. no. 12250210, COSMO BIO), CD1 mouse plasma (cat. no. AP3054, KAC), and phosphate buffer solution at 37° C., and removed at predetermined times (0, 5, 10, 30, 60, and 120 minutes). After protein-removing treatment was performed, they are analyzed with LC-MS. It should be noted that the protein-removing treatment used acetonitrile containing: 10% volume of 1 mol/L hydrochloric acid; 1% volume of 46% citric acid; and phenytoin as an internal standard.
(§3) The measurement condition of LC-MS is as described below. LC-MS condition column: Kinetex 2.6 u PFP 100 A 50×2.1 mm Column temperature: 40° C.
(§4) Mobile phase: A: 0.1% formic acid-containing water
(§5) • B: 0.1% formic acid-containing acetonitrile A/B(min): 95/5(0)→5/95(3)→5/95(4)→95/5(4.1)→95/5(6) Flow rate: 0.4 mL/min Detection: ESI (positive mode) Injection volume: 10 uL
Measurement values are calculated from the peak area ratio in LC-MS between an internal standard material, phenytoin and an active form, 2-acetylnaphtho[2,3-b]furan-4,9-dione, and are expressed in %.
In the same way as Example 6, the incubation time was set as 120 minutes later, and the conversion rate of each of various test compounds to 2-acetylnaphtho[2,3-b]furan-4,9-dione in human plasma, CD1 mouse plasma, and pH 7.4 phosphate buffer solution was measured. A series of the present compounds were confirmed to be converted to 2-acetylnaphtho[2,3-b]furan-4,9-dione in pH 7.4 phosphate buffer solution in addition to human plasma and CD1 mouse plasma. Therefore, a series of the test compounds of the present invention were confirmed to be converted to the activated form via a route other than an enzymatic conversion.

A further data set in a line: Solubility test. The conditions noted are these: 50 mmol/L glycine buffer solution (pH 2.0), room temperature, 24 hours shaking.
Data set [2] is described as follows: Evaluation of a conversion rate to 2-acetylnaphtho[2,3-b]furan-4,9-dione in human plasma. It counts as in vitro ADME. To be noted: Human plasma, 1 umol/L, 37° C., incubation time 120 min. As for the experimental part: as §1, §2, §3, §4, §5
In the same way as Example 6, the incubation time was set as 120 minutes later, and the conversion rate of each of various test compounds to 2-acetylnaphtho[2,3-b]furan-4,9-dione in human plasma, CD1 mouse plasma, and pH 7.4 phosphate buffer solution was measured.

Protocol for Solubility test: A water-soluble prodrug was added into 50 mmol/L glycine buffer solution (pH 2.0). After shaking at room temperature for 24 hours, the mixture was filtered through a membrane filter, and then the filtrate was measured with HPLC.
The measurement condition of HPLC is as described below. HPLC condition column: Acquity UPLC BEH C18, 1.7 um, 50×2.1 mm
Mobile phase: A: 0.1% trifluoroacetic acid-containing water

Turning to `CC(=O)c1cc2c(OC(=O)NCCNCCCC(=O)O)c3ccccc3c(OC(=O)NCCNCCCC(=O)O)c2o1.Cl.Cl` [Example 42], the figures for the “% Measurement value (conversion rate to 2-acetylnaphtho[2,3-b]furan-4,9-dione)” value (“% Measurement value” below) in data set [1] and in data set [2] were 54% and 69%, respectively. For the same compound, the “Solubility in pH 2.0 buffer solution” value in the data set “Solubility test” is listed as greater than 5.0 mg/mL.
The like results for `CC(=O)c1cc2c(OC(=O)NCCNCCF)c3ccccc3c(OC(=O)NCCNCCF)c2o1.Cl.Cl` [Example 43] were, in that order, 63%, 81% and greater than 5.0 mg/mL.
As to `CC(=O)c1cc2c(OC(=O)NCCNCC(F)(F)F)c3ccccc3c(OC(=O)NCCNCC(F)(F)F)c2o1.Cl.Cl` [Example 45], the “% Measurement value” value amounted to 48% in data set [1] and 84% in data set [2]. For the same compound, in “Solubility test”, the “Solubility in pH 2.0 buffer solution” value was greater than 5.0 mg/mL.
The like results for `CC(=O)c1cc2c(OC(=O)NCCNCCN)c3ccccc3c(OC(=O)NCCNCCN)c2o1.Cl.Cl` [Example 46] were, in that order, 54%, 59% and greater than 5.0 mg/mL.
For `COC(=O)CNCCCNC(=O)Oc1c2ccccc2c(OC(=O)NCCCNCC(=O)OC)c2oc(C(C)=O)cc12.Cl.Cl` [Example 47], in that order: 65%, 92% and greater than 5.0 mg/mL.
For `CC(=O)c1cc2c(OC(=O)NC3CCNC3)c3ccccc3c(OC(=O)NC3CCNC3)c2o1.Cl.Cl` (stereo not shown) [Example 48], in that order: 59%, 71% and greater than 5.0 mg/mL.
Take `CC(=O)c1cc2c(OC(=O)NC3CCCNC3)c3ccccc3c(OC(=O)NC3CCCNC3)c2o1.Cl.Cl` (stereo not shown) [Example 49]: the entries for the “% Measurement value” value in data set [1] and in data set [2] were 58% and 77%, respectively. The “Solubility in pH 2.0 buffer solution” value in “Solubility test” was greater than 5.0 mg/mL.
The like results for `CC(=O)c1cc2c(OC(=O)NCCNC(C)C(=O)O)c3ccccc3c(OC(=O)NCCNC(C)C(=O)O)c2o1.Cl.Cl` (stereo not shown) [Example 50] were, in that order, 61%, 96% and 0.1 mg/mL.
As for `CCC(NCCNC(=O)Oc1c2ccccc2c(OC(=O)NCCNC(CC)C(=O)O)c2oc(C(C)=O)cc12)C(=O)O.Cl.Cl` (stereo not shown) [Example 51], the “% Measurement value” value in data set [1] was determined as 55%; in data set [2] it was 70%. In “Solubility test”, the “Solubility in pH 2.0 buffer solution” value stood at 0.1 mg/mL.
The like results for `CC(=O)c1cc2c(OC(=O)NCCCNCCN)c3ccccc3c(OC(=O)NCCCNCCN)c2o1.Cl.Cl` [Example 52] were, in that order, 55%, 78% and greater than 5.0 mg/mL.
The like results for `CC(=O)c1cc2c(OC(=O)NCCCNCC(F)(F)F)c3ccccc3c(OC(=O)NCCCNCC(F)(F)F)c2o1.Cl.Cl` [Example 53] were, in that order, 41%, 100% and greater than 5.0 mg/mL.
The like results for `CC(=O)c1cc2c(OC(=O)NCCNCc3ccccc3)c3ccccc3c(OC(=O)NCCNCc3ccccc3)c2o1.Cl.Cl` [Example 55] were, in that order, 63%, 86% and greater than 5.0 mg/mL.
For `CC(=O)c1cc2c(OC(=O)NCCNCCS(=O)(=O)N3CCCCC3)c3ccccc3c(OC(=O)NCCNCCS(=O)(=O)N3CCCCC3)c2o1.Cl.Cl` [Example 56], the results for the “% Measurement value” value in data set [1] and in data set [2] were 30% and 63%, respectively. For the same compound, the “Solubility in pH 2.0 buffer solution” value in “Solubility test” is reported as 3.3 mg/mL.
As to `CC(=O)c1cc2c(OC(=O)NCCNCCS(=O)(=O)N(C)C)c3ccccc3c(OC(=O)NCCNCCS(=O)(=O)N(C)C)c2o1.Cl.Cl` [Example 57], the “% Measurement value” value in data set [1] was found to be 34%; in data set [2], 68%. In the data set “Solubility test”, the “Solubility in pH 2.0 buffer solution” value is recorded as greater than 5.0 mg/mL.
The like results for `CC(=O)c1cc2c(OC(=O)NCCNCCS(=O)(=O)C(C)C)c3ccccc3c(OC(=O)NCCNCCS(=O)(=O)C(C)C)c2o1.Cl.Cl` [Example 58] were, in that order, 40%, 81% and 1.5 mg/mL.
The like results for `CC(=O)c1cc2c(OC(=O)NCCCNCCS(=O)(=O)N(C)C)c3ccccc3c(OC(=O)NCCCNCCS(=O)(=O)N(C)C)c2o1.Cl.Cl` [Example 59] were, in that order, 66%, 81% and greater than 5.0 mg/mL.
The like results for `CC(=O)c1cc2c(OC(=O)NCCCNCCS(C)(=O)=O)c3ccccc3c(OC(=O)NCCCNCCS(C)(=O)=O)c2o1.Cl.Cl` [Example 60] were, in that order, 39%, 68% and greater than 5.0 mg/mL.
On to `CC(=O)c1cc2c(OC(=O)NCCNCCS(C)(=O)=O)c3ccccc3c(OC(=O)NCCNCCS(C)(=O)=O)c2o1.Cl.Cl` [Example 61], for which the results for the “% Measurement value” value in data set [1] and in data set [2] were 55% and 87%, respectively. In addition, the “Solubility in pH 2.0 buffer solution” value in “Solubility test” amounted to 2.5 mg/mL.
Consider `CC(=O)c1cc2c(OC(=O)NCCNCC(=O)N3CCC3)c3ccccc3c(OC(=O)NCCNCC(=O)N3CCC3)c2o1.Cl.Cl` [Example 62], for which the results for the “% Measurement value” value in data set [1] and in data set [2] were 37% and 65%, respectively. In addition, the “Solubility in pH 2.0 buffer solution” value in “Solubility test” is given as greater than 5.0 mg/mL.
For `CC(=O)c1cc2c(OC(=O)NCCCNCC(=O)N3CCC3)c3ccccc3c(OC(=O)NCCCNCC(=O)N3CCC3)c2o1.Cl.Cl` [Example 63], in that order: 51%, 59% and greater than 5.0 mg/mL.
For `CC(=O)c1cc2c(OC(=O)NCCCNCC(=O)NCC(=O)O)c3ccccc3c(OC(=O)NCCCNCC(=O)NCC(=O)O)c2o1.Cl.Cl` [Example 64], in that order: 40%, 57% and greater than 5.0 mg/mL.
On to `CC(=O)c1cc2c(OC(=O)NCCNCCOC(N)=O)c3ccccc3c(OC(=O)NCCNCCOC(N)=O)c2o1.Cl.Cl` [Example 65], for which the “% Measurement value” value in data set [1] was 73%; in data set [2] it was 81%. In addition, the “Solubility in pH 2.0 buffer solution” value in the data set “Solubility test” is greater than 5.0 mg/mL.
Regarding `COC(=O)[C@@H](N)CCNC(=O)Oc1c2ccccc2c(OC(=O)NCC[C@H](N)C(=O)OC)c2oc(C(C)=O)cc12` [Example 106, Dimethyl 4,4′-((((2-acetylnaphtho[2,3-b]furan-4,9-diyl)bis(oxy))bis(carbonyl))bis(azanediyl))(2S,2′S)-bis(2-aminobutanoate)dibenzenesulfonate salt], the “% Measurement value” value in data set [1] was found to be 55%. Besides, the “Solubility in pH 2.0 buffer solution” value in the data set “Solubility test” is greater than 5.0 mg/mL.
The like results for `COC(=O)[C@@H](N)CCNC(=O)Oc1c2ccccc2c(OC(=O)NCC[C@H](N)C(=O)OC)c2oc(C(C)=O)cc12` [Example 108, Dimethyl 4,4′-((((2-acetylnaphtho[2,3-b]furan-4,9-diyl)bis(oxy))bis(carbonyl))bis(azanediyl))(2S,2′S)-bis(2-aminobutanoate)ditrifluoroacetate salt] were, in that order, 44% and greater than 5.0 mg/mL.
